Where “and” joins values, the source holds several entries; their conditions need not be identical. Equal entries are not always repeated. Structures can show the parent of a compound that is named as a salt.
Key:
[1] = Oral gavage pharmacokinetics in rats, plasma oxycodone by LC-MS/MS; settings: 0.89 mg/kg oral, rat; for Plasma Concentration (oxycodone), Mean: mean of the N quantifiable subjects
[2] = Oral gavage pharmacokinetics in rats, plasma oxymorphone by LC-MS/MS; settings: for concentration at 0.25 h / concentration at 0.5 h / concentration at 1 h / concentration at 2 h / concentration at 3 h / concentration at 4 h / concentration at 6 h: oral, Plasma oxymorphone
[3] = Dissolution of test article in dosing formulation; settings: Ex No. B1a, 6.72 mg/kg group, 0.5% methylcellulose vehicle, equivalent to 2 mg/mL oxymorphone HCl
[4] = 1.77 mg/kg Oxymorphone HCl oral, rat, hydrochloride

Question: What does the source list for `COc1ccc2c3c1O[C@H]1C(OC(=O)C[C@H](OC(=O)C[C@H](O)C(=O)O)C(=O)O)=CC[C@@]4(O)[C@@H](C2)N(C)CC[C@]314` [Oxycodone Dimalate, (S)-4-((S)-1-Carboxy-3-(((4R,4aS,7aR,12bS)-4a-hydroxy-9-methoxy-3-methyl-2,3,4,4a,5,7a-hexahydro-1H-4,12-methanobenzofuro[3,2-e]isoquinolin-7-yl)oxy)-3-oxopropoxy)-2-hydroxy-4-oxobutanoic acid trifluoroacetic acid salt]?
Answer: Plasma Concentration (oxycodone) by Subject ([1]; 0.25 h): BLQ; Plasma Concentration (oxycodone), Mean ([1]; 0.25 h): BLQ; Plasma Concentration (oxycodone) by Subject ([1]; 0.5 h): BLQ; Plasma Concentration (oxycodone), Mean ([1]; 0.5 h): BLQ; Plasma Concentration (oxycodone) by Subject ([1]; 2 h): BLQ; Plasma Concentration (oxycodone), Mean ([1]; 2 h): BLQ; Plasma Concentration (oxycodone) by Subject ([1]; 3 h): BLQ; Plasma Concentration (oxycodone), Mean ([1]; 3 h): BLQ; Plasma Concentration (oxycodone) by Subject ([1]; 4 h): BLQ; Plasma Concentration (oxycodone), Mean ([1]; 4 h): BLQ; Plasma Concentration (oxycodone) by Subject ([1]; 6 h): BLQ; Plasma Concentration (oxycodone), Mean ([1]; 6 h): BLQ

Question: Which results are given for `COc1ccc2c3c1O[C@H]1C(=O)CC[C@@]4(O)[C@@H](C2)N(C)CC[C@]314.Cl` [Oxycodone HCl, oxycodone HCl]?
Answer: Plasma Concentration (oxycodone) by Subject ([1]; 2 h): BLQ; Plasma Concentration (oxycodone), Mean ([1]; 2 h): BLQ; Plasma Concentration (oxycodone) by Subject ([1]; 3 h): BLQ; Plasma Concentration (oxycodone), Mean ([1]; 3 h): BLQ; Plasma Concentration (oxycodone) by Subject ([1]; 4 h): BLQ; Plasma Concentration (oxycodone), Mean ([1]; 4 h): BLQ; Plasma Concentration (oxycodone) by Subject ([1]; 6 h): BLQ; Plasma Concentration (oxycodone), Mean ([1]; 6 h): BLQ

Question: For `COc1ccc2c3c1O[C@H]1C(OC(=O)[C@H](C)O)=CC[C@@]4(O)[C@@H](C2)N(C)CC[C@]314` [Oxycodone Lactate, (S)-(4R,4aS,7aR,12bS)-4a-Hydroxy-9-methoxy-3-methyl-2,3,4,4a,5,7a-hexahydro-1H-4,12-methanobenzofuro[3,2-e]isoquinolin-7-yl 2-hydroxypropanoate trifluoroacetic acid salt], which “Plasma Concentration (oxycodone) by Subject” value ([1]; 6 h) is on record?
Answer: BLQ

Question: And the “Plasma Concentration (oxycodone), Mean” value ([1]; 6 h)?
Answer: BLQ

Question: Which results are given for `COc1ccc2c3c1O[C@H]1C(OC(=O)C[C@H](O)C(=O)O)=CC[C@@]4(O)[C@@H](C2)N(C)CC[C@]314.Cl` [Oxycodone Malate, (S)-2-Hydroxy-4-(((4R,4aS,7aR,12bS)-4a-hydroxy-9-methoxy-3-methyl-2,3,4,4a,5,7a-hexahydro-1H-4,12-methanobenzofuro[3,2-e]isoquinolin-7-yl)oxy)-4-oxobutanoic acid hydrochloride]?
Answer: Plasma Concentration (oxycodone) by Subject ([1]; 6 h): BLQ; Plasma Concentration (oxycodone), Mean ([1]; 6 h): BLQ

Question: With `COc1ccc2c3c1O[C@H]1C(OC(=O)[C@H](O)c4ccccc4)=CC[C@@]4(O)[C@@H](C2)N(C)CC[C@]314` [Oxycodone Mandelate, (R)-(4R,4aS,7aR,12bS)-4a-Hydroxy-9-methoxy-3-methyl-2,3,4,4a,5,7a-hexahydro-1H-4,12-methanobenzofuro[3,2-e]isoquinolin-7-yl 2-hydroxy-2-phenylacetate trifluoroacetic acid salt] as the molecule, how does the “Plasma Concentration (oxycodone) by Subject” value ([1]; 4 h) read?
Answer: BLQ

Question: What about the “Plasma Concentration (oxycodone), Mean” value ([1]; 4 h) of the same molecule?
Answer: BLQ

Question: And the “Plasma Concentration (oxycodone) by Subject” value ([1]; 6 h)?
Answer: BLQ

Question: And the “Plasma Concentration (oxycodone), Mean” value ([1]; 6 h)?
Answer: BLQ

Question: Which “Plasma Concentration (oxycodone) by Subject” value ([1]; 4 h) does the source give for `CCCCCCCC/C=C\CCCCCCCC(=O)OC1=CC[C@@]2(O)[C@H]3Cc4ccc(OC)c5c4[C@@]2(CCN3C)[C@H]1O5.Cl` [Oxycodone Oleate, (4R,4aS,7aR,12bS)-4a-Hydroxy-9-methoxy-3-methyl-2,3,4,4a,5,7a-hexahydro-1H-4,12-methanobenzofuro[3,2-e]isoquinolin-7-yl oleate hydrochloride] here?
Answer: BLQ

Question: And the “Plasma Concentration (oxycodone), Mean” value ([1]; 4 h)?
Answer: BLQ

Question: For `CN1CC[C@]23c4c5ccc(O)c4O[C@H]2C(=O)CC[C@@]3(O)[C@H]1C5` [Oxymorphone HCl, oxymorphone hydrochloride], which “Plasma oxymorphone, individual rats” value ([2]; 1.77 mg/kg Oxymorphone HCl oral, rat, 0.25 h, hydrochloride) is on record?
Answer: 0.379 ng/mL and 0.862 ng/mL and 1.144 ng/mL

Question: And the “Plasma oxymorphone, individual rats” value ([2]; 1.77 mg/kg Oxymorphone HCl oral, rat, 0.5 h, hydrochloride)?
Answer: 0.343 ng/mL and 0.925 ng/mL and 0.799 ng/mL

Question: And the “Plasma oxymorphone, individual rats” value ([2]; 1.77 mg/kg Oxymorphone HCl oral, rat, 1 h, hydrochloride)?
Answer: 0.545 ng/mL and 1.557 ng/mL and 1.110 ng/mL

Question: What about the “Plasma oxymorphone, individual rats” value ([2]; 1.77 mg/kg Oxymorphone HCl oral, rat, 2 h, hydrochloride) of the same molecule?
Answer: 0.728 ng/mL and 1.826 ng/mL and 0.621 ng/mL

Question: And the “Plasma oxymorphone, individual rats” value ([2]; 1.77 mg/kg Oxymorphone HCl oral, rat, 3 h, hydrochloride)?
Answer: 0.676 ng/mL and BQL (BQL: <0.200 ng/mL)

Question: And the “Plasma oxymorphone, individual rats” value ([2]; 1.77 mg/kg Oxymorphone HCl oral, rat, 4 h, hydrochloride)?
Answer: 0.429 ng/mL and BQL (BQL: <0.200 ng/mL)

Question: And the “Plasma oxymorphone, individual rats” value ([2]; 1.77 mg/kg Oxymorphone HCl oral, rat, 6 h, hydrochloride)?
Answer: BQL (BQL: <0.200 ng/mL)

Question: What about the “Cmax of plasma oxymorphone, individual rats” value [2, 4] of the same molecule?
Answer: 0.728 ng/mL and 1.826 ng/mL and 1.144 ng/mL

Question: And the “Tmax of plasma oxymorphone, individual rats” value [2, 4]?
Answer: 2.00 h (2×) and 0.25 h

Question: And the “Plasma oxymorphone, individual rats” value ([2]; 3.54 mg/kg Oxymorphone HCl oral, rat, 0.25 h, hydrochloride)?
Answer: 4.958 ng/mL and 3.246 ng/mL and 1.767 ng/mL

Question: And the “Plasma oxymorphone, individual rats” value ([2]; 3.54 mg/kg Oxymorphone HCl oral, rat, 0.5 h, hydrochloride)?
Answer: 4.716 ng/mL and 2.469 ng/mL and 2.095 ng/mL

Question: What about the “Plasma oxymorphone, individual rats” value ([2]; 3.54 mg/kg Oxymorphone HCl oral, rat, 1 h, hydrochloride) of the same molecule?
Answer: 3.423 ng/mL and 2.146 ng/mL and 0.913 ng/mL

Question: And the “Plasma oxymorphone, individual rats” value ([2]; 3.54 mg/kg Oxymorphone HCl oral, rat, 2 h, hydrochloride)?
Answer: 2.434 ng/mL and 1.639 ng/mL

Question: What about the “Plasma oxymorphone, individual rats” value ([2]; 3.54 mg/kg Oxymorphone HCl oral, rat, 3 h, hydrochloride) of the same molecule?
Answer: 0.577 ng/mL and 1.635 ng/mL and 1.276 ng/mL

Question: And the “Plasma oxymorphone, individual rats” value ([2]; 3.54 mg/kg Oxymorphone HCl oral, rat, 4 h, hydrochloride)?
Answer: 0.545 ng/mL and 0.618 ng/mL

Question: And the “Plasma oxymorphone, individual rats” value ([2]; 3.54 mg/kg Oxymorphone HCl oral, rat, 6 h, hydrochloride)?
Answer: 0.796 ng/mL and 0.774 ng/mL

Question: And the concentration at 0.25 h ([2]; male, Sprague Dawley, rat, plasma, 1.77 mg/kg, Mean, 1.77 mg/kg Oxymorphone HCl oral, 0.25 h)?
Answer: 0.795 ng/mL

Question: What about the concentration at 0.5 h ([2]; male, Sprague Dawley, rat, plasma, 1.77 mg/kg, Mean, 1.77 mg/kg Oxymorphone HCl oral, 0.5 h) of the same molecule?
Answer: 0.689 ng/mL

Question: And the concentration at 1 h ([2]; male, Sprague Dawley, rat, plasma, 1.77 mg/kg, Mean, 1.77 mg/kg Oxymorphone HCl oral, 1 h)?
Answer: 1.07 ng/mL

Question: And the concentration at 2 h ([2]; male, Sprague Dawley, rat, plasma, 1.77 mg/kg, Mean, 1.77 mg/kg Oxymorphone HCl oral, 2 h)?
Answer: 1.06 ng/mL

Question: What about the concentration at 3 h ([2]; male, Sprague Dawley, rat, plasma, 1.77 mg/kg, Mean, 1.77 mg/kg Oxymorphone HCl oral, 3 h) of the same molecule?
Answer: 0.378 ng/mL

Question: What about the concentration at 4 h ([2]; male, Sprague Dawley, rat, plasma, 1.77 mg/kg, Mean, 1.77 mg/kg Oxymorphone HCl oral, 4 h) of the same molecule?
Answer: 0.312 ng/mL

Question: What about the concentration at 6 h ([2]; male, Sprague Dawley, rat, plasma, 1.77 mg/kg, Mean, 1.77 mg/kg Oxymorphone HCl oral, 6 h) of the same molecule?
Answer: 0.6 ng/mL

Question: What about the concentration at 3 h ([2]; male, Sprague Dawley, rat, plasma, 1.77 mg/kg, individual rats, 1.77 mg/kg Oxymorphone HCl oral, 3 h) of the same molecule?
Answer: 0.457 ng/mL

Question: And the concentration at 4 h ([2]; male, Sprague Dawley, rat, plasma, 1.77 mg/kg, individual rats, 1.77 mg/kg Oxymorphone HCl oral, 4 h)?
Answer: 0.508 ng/mL

Question: What about the concentration at 6 h ([2]; male, Sprague Dawley, rat, plasma, 1.77 mg/kg, individual rats, 1.77 mg/kg Oxymorphone HCl oral, 6 h) of the same molecule?
Answer: 1.8 ng/mL

Question: What about the concentration at 0.25 h ([2]; male, Sprague Dawley, rat, plasma, 3.54 mg/kg, Mean, 3.54 mg/kg Oxymorphone HCl oral, 0.25 h) of the same molecule?
Answer: 3.32 ng/mL

Question: And the concentration at 0.5 h ([2]; male, Sprague Dawley, rat, plasma, 3.54 mg/kg, Mean, 3.54 mg/kg Oxymorphone HCl oral, 0.5 h)?
Answer: 3.09 ng/mL

Question: What about the concentration at 1 h ([2]; male, Sprague Dawley, rat, plasma, 3.54 mg/kg, Mean, 3.54 mg/kg Oxymorphone HCl oral, 1 h) of the same molecule?
Answer: 2.16 ng/mL

Question: What about the concentration at 2 h ([2]; male, Sprague Dawley, rat, plasma, 3.54 mg/kg, Mean, 3.54 mg/kg Oxymorphone HCl oral, 2 h) of the same molecule?
Answer: 1.78 ng/mL

Question: What about the concentration at 3 h ([2]; male, Sprague Dawley, rat, plasma, 3.54 mg/kg, Mean, 3.54 mg/kg Oxymorphone HCl oral, 3 h) of the same molecule?
Answer: 1.16 ng/mL

Question: And the concentration at 4 h ([2]; male, Sprague Dawley, rat, plasma, 3.54 mg/kg, Mean, 3.54 mg/kg Oxymorphone HCl oral, 4 h)?
Answer: 0.499 ng/mL

Question: And the concentration at 6 h ([2]; male, Sprague Dawley, rat, plasma, 3.54 mg/kg, Mean, 3.54 mg/kg Oxymorphone HCl oral, 6 h)?
Answer: 0.674 ng/mL

Question: What about the concentration at 2 h ([2]; male, Sprague Dawley, rat, plasma, 3.54 mg/kg, individual rats, 3.54 mg/kg Oxymorphone HCl oral, 2 h) of the same molecule?
Answer: 1.27 ng/mL

Question: And the concentration at 4 h ([2]; male, Sprague Dawley, rat, plasma, 3.54 mg/kg, individual rats, 3.54 mg/kg Oxymorphone HCl oral, 4 h)?
Answer: 0.335 ng/mL

Question: And the concentration at 6 h ([2]; male, Sprague Dawley, rat, plasma, 3.54 mg/kg, individual rats, 3.54 mg/kg Oxymorphone HCl oral, 6 h)?
Answer: 0.453 ng/mL

Question: What about the Cmax ([2]; male, Sprague Dawley, rat, plasma, po, 1.77 mg/kg, Cmax of plasma oxymorphone, Mean, 1.77 mg/kg Oxymorphone HCl oral) of the same molecule?
Answer: 1.23 ng/mL

Question: And the Tmax ([2]; male, Sprague Dawley, rat, plasma, po, 1.77 mg/kg, Tmax of plasma oxymorphone, Mean, 1.77 mg/kg Oxymorphone HCl oral)?
Answer: 1.42 h

Question: For `CN1CC[C@]23c4c5ccc(O)c4O[C@H]2C(OC(=O)[C@@H](O)c2ccccc2)=CC[C@@]3(O)[C@H]1C5.Cl` [Oxymorphone Mandelate], which “Solubility of test article in dosing formulation” value [3] is on record?
Answer: (not completely soluble)

Question: What does the source list for `CCCCCCCC/C=C\CCCCCCCC(=O)OC1=CC[C@@]2(O)[C@H]3Cc4ccc(O)c5c4[C@@]2(CCN3C)[C@H]1O5` [Oxymorphone Oleate, trifluoroacetic acid salt]?
Answer: Plasma oxymorphone, individual rats ([2]; 7.12 mg/kg oral, Ex No. B3, rat, 0.25 h, trifluoroacetic acid salt): BQL (BQL: <0.200 ng/mL); Plasma oxymorphone, individual rats ([2]; 7.12 mg/kg oral, Ex No. B3, rat, 0.5 h, trifluoroacetic acid salt): BQL (BQL: <0.200 ng/mL); Plasma oxymorphone, individual rats ([2]; 7.12 mg/kg oral, Ex No. B3, rat, 2 h, trifluoroacetic acid salt): BQL (BQL: <0.200 ng/mL)
